Assay results taken from ChEMBL document CHEMBL5465560, “Selectivity Literature for EUbOPEN Chemogenomic Library” (2024).

Experiments:
[1] = target: T1, Serine/threonine-protein kinase D2 (Homo sapiens) (UniProt Q9BZL6); assay: Selectivity interaction (KinomeScan (DiscoverX)) EUB0001049a PRKD2; settings: at 1 µM
T1 sequence (whole entry): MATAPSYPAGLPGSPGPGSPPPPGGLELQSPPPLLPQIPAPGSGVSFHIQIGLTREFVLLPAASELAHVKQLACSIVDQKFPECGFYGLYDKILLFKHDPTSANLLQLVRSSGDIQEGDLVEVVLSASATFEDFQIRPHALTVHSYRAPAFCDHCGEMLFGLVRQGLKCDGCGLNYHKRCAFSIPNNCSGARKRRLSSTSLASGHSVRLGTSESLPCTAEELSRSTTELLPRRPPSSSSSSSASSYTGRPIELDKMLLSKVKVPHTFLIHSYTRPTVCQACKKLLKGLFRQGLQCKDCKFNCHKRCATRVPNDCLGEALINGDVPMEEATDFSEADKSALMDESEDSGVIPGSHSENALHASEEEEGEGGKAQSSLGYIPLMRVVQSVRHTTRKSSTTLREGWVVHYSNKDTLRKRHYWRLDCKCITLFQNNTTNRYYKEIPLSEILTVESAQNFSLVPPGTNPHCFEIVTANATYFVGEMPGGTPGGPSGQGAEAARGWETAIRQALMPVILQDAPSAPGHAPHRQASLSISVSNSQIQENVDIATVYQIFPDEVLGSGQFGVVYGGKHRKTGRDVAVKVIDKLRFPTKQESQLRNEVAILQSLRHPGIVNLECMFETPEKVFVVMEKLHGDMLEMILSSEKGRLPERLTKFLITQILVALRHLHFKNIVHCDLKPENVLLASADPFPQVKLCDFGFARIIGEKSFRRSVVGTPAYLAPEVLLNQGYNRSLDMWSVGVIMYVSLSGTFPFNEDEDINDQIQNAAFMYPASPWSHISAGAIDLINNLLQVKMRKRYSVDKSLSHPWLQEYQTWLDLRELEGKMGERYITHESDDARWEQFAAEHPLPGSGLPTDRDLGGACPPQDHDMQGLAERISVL

[2] = target: Mitogen-activated protein kinase 14 (Homo sapiens, UniProt Q16539); assay: Selectivity interaction (ActivX KiNativ screen (kinase selectivity in THP-1 cell lysates)) EUB0000639a MAPK14; assay type: subcellular; settings: lysate, at 0.04 µM
Chain of Mitogen-activated protein kinase 14 (Q16539 whole entry): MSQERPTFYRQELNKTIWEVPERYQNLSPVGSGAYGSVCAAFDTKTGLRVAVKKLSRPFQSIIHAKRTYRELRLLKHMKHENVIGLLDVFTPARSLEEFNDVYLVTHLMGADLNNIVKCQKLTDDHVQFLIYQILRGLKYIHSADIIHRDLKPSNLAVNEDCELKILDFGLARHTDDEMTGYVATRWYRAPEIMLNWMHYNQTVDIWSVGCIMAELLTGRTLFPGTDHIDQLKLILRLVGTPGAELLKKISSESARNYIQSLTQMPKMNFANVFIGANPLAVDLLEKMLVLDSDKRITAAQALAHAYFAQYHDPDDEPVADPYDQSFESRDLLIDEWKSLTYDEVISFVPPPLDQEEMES

[3] = target: Glycogen synthase kinase-3 alpha (Homo sapiens, UniProt P49840); settings: at 10 µM
Chain of Glycogen synthase kinase-3 alpha (P49840 2-483 limits assumed): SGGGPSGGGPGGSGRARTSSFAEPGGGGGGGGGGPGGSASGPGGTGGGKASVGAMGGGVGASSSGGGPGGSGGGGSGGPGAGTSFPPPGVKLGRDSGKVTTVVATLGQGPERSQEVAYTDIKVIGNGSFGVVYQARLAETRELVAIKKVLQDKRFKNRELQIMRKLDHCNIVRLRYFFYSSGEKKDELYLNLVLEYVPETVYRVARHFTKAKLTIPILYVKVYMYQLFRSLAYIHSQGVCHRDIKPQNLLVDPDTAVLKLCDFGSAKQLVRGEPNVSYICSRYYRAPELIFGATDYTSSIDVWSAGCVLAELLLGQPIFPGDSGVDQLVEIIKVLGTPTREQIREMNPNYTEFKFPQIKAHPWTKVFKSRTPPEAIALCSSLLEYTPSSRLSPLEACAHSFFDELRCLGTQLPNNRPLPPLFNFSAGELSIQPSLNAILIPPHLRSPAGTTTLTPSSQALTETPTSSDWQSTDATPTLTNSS

[4] = target: T2, Serine/threonine-protein kinase RIO1 (Homo sapiens) (UniProt Q9BRS2); assay: Selectivity interaction (KinomeScan (DiscoverX)) EUB0000045b RIOK1
T2 sequence (whole entry): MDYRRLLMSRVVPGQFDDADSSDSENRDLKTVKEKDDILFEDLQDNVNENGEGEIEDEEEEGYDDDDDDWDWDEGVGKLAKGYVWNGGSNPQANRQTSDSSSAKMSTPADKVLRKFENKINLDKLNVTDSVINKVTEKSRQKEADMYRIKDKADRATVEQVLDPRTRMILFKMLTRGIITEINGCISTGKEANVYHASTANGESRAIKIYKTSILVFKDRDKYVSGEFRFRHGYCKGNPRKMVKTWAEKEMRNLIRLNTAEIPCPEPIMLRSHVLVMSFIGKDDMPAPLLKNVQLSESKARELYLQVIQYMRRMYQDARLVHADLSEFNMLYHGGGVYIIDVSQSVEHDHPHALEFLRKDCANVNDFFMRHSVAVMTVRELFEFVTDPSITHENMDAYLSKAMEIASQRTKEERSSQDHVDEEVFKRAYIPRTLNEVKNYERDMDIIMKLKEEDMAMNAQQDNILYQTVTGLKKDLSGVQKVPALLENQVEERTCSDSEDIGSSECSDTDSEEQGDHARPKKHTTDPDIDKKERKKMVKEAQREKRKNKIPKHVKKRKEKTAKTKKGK

[5] = target: Macrophage colony-stimulating factor 1 receptor (Homo sapiens) (UniProt P07333); assay: Selectivity interaction (KinomeScan (DiscoverX)) EUB0000655a CSF1R; settings: at 10 µM
Chain of Macrophage colony-stimulating factor 1 receptor (Homo sapiens) (P07333 whole entry): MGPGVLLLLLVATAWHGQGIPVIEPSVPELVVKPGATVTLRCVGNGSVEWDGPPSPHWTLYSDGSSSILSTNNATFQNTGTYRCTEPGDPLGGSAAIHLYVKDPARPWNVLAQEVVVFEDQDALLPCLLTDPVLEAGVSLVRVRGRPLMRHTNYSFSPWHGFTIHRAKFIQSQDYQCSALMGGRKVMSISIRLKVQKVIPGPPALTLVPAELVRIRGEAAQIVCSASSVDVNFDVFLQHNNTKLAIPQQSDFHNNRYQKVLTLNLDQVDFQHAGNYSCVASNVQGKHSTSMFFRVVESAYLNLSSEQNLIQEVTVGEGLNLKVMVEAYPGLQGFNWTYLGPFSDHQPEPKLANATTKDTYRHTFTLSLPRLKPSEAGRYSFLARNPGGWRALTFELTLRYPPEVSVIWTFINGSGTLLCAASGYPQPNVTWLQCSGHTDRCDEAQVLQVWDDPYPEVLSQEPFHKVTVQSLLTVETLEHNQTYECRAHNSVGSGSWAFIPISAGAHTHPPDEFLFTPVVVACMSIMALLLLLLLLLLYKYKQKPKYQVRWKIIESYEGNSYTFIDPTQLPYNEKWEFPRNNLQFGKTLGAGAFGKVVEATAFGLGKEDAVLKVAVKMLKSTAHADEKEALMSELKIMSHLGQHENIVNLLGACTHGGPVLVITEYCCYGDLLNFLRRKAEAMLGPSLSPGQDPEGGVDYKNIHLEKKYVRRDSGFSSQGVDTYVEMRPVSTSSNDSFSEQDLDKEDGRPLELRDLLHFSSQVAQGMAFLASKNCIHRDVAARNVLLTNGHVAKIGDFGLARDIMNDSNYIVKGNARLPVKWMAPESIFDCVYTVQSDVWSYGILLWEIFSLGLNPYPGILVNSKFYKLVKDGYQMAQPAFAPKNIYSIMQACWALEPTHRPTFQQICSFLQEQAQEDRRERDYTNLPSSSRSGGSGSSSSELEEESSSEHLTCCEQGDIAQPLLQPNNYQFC

[6] = target: Hepatocyte growth factor receptor (Homo sapiens, UniProt P08581); assay: (§1) Selectivity interaction (KinomeScan (DiscoverX)) EUB0001619a MET; settings: at 1 µM
Chain of Hepatocyte growth factor receptor (P08581 whole entry): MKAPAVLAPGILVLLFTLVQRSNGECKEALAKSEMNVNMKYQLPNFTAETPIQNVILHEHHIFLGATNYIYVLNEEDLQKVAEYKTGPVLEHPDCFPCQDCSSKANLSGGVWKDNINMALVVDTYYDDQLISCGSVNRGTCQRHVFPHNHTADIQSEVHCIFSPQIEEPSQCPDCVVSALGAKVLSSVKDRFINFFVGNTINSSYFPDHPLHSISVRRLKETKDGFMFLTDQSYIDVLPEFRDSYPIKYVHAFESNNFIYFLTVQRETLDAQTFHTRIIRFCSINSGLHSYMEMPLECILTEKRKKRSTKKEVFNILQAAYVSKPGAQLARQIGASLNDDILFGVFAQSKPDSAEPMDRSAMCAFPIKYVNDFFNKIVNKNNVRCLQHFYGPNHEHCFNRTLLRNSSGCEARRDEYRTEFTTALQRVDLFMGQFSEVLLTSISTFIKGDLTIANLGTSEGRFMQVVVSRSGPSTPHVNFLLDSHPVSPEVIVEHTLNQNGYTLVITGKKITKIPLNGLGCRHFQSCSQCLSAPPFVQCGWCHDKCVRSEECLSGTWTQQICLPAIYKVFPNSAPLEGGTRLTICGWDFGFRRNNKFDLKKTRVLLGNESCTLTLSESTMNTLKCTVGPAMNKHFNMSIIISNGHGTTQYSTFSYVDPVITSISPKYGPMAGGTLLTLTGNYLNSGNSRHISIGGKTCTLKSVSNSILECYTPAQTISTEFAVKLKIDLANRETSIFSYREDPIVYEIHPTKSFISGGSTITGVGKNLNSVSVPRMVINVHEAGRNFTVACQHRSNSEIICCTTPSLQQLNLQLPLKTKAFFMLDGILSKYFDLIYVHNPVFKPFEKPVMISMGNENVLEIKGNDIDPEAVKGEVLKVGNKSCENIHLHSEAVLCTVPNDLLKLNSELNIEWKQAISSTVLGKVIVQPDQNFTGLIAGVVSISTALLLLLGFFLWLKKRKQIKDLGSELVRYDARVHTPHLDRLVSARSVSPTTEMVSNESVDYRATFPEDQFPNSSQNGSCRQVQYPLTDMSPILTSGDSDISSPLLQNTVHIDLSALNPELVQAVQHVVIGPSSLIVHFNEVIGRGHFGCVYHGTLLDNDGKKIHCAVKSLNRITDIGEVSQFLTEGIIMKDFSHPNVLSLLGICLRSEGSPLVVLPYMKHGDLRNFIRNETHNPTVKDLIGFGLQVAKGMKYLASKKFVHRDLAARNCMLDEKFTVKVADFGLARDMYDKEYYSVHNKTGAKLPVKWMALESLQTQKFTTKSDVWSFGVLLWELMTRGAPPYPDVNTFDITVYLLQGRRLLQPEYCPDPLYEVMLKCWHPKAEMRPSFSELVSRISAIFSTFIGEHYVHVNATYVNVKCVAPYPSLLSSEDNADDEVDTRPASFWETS

[7] = tested on: Hepatocyte growth factor receptor (Homo sapiens), P08581 [M1250T]; assay: as §1; settings: at 1 µM
[8] = tested on: Hepatocyte growth factor receptor (Homo sapiens), P08581 [Y1235D]; assay: as §1; settings: at 1 µM
[9] = target: T3, Muscle, skeletal receptor tyrosine-protein kinase (Homo sapiens) (UniProt O15146); assay: Selectivity interaction (SelectScreen profiling (Invitrogen)) EUB0000607a MUSK; settings: at 2 µM
T3 sequence (whole entry): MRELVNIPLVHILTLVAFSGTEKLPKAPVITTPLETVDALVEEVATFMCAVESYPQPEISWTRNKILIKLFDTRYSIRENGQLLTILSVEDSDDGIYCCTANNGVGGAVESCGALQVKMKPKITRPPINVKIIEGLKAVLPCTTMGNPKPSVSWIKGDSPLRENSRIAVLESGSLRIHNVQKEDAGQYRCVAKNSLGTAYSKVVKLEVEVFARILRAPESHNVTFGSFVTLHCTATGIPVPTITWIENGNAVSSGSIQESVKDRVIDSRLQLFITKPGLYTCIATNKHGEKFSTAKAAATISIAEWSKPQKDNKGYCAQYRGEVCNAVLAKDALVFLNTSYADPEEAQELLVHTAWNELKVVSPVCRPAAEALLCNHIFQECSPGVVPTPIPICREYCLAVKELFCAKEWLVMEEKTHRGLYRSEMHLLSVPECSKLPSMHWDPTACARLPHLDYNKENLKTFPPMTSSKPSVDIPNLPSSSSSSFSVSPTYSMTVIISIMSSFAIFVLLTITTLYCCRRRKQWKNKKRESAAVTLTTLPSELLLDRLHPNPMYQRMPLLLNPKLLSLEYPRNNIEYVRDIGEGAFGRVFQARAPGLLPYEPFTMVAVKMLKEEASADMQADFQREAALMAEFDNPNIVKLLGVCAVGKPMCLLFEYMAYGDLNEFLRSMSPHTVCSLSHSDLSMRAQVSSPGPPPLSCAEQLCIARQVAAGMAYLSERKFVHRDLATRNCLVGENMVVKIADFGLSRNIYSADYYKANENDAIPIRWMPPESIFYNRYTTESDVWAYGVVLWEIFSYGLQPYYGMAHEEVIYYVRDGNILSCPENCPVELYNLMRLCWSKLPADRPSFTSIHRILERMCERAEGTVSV

[10] = target: Mitogen-activated protein kinase kinase kinase 4 (Homo sapiens) (UniProt Q9Y6R4); assay: Selectivity interaction (Kinase panel (KiNativ target engagement assay in Jurkat cells)) EUB0001635a MAP3K4; assay type: cell-based; settings: Selectivity number of off-targets 0.0, Selectivity number of targets 233.0, Source Knowledge https://www.sciencedirect.com/science/article/pii/S2451945619300674?via%3Dihub, at 1 µM
Chain of Mitogen-activated protein kinase kinase kinase 4 (Homo sapiens) (Q9Y6R4 whole entry): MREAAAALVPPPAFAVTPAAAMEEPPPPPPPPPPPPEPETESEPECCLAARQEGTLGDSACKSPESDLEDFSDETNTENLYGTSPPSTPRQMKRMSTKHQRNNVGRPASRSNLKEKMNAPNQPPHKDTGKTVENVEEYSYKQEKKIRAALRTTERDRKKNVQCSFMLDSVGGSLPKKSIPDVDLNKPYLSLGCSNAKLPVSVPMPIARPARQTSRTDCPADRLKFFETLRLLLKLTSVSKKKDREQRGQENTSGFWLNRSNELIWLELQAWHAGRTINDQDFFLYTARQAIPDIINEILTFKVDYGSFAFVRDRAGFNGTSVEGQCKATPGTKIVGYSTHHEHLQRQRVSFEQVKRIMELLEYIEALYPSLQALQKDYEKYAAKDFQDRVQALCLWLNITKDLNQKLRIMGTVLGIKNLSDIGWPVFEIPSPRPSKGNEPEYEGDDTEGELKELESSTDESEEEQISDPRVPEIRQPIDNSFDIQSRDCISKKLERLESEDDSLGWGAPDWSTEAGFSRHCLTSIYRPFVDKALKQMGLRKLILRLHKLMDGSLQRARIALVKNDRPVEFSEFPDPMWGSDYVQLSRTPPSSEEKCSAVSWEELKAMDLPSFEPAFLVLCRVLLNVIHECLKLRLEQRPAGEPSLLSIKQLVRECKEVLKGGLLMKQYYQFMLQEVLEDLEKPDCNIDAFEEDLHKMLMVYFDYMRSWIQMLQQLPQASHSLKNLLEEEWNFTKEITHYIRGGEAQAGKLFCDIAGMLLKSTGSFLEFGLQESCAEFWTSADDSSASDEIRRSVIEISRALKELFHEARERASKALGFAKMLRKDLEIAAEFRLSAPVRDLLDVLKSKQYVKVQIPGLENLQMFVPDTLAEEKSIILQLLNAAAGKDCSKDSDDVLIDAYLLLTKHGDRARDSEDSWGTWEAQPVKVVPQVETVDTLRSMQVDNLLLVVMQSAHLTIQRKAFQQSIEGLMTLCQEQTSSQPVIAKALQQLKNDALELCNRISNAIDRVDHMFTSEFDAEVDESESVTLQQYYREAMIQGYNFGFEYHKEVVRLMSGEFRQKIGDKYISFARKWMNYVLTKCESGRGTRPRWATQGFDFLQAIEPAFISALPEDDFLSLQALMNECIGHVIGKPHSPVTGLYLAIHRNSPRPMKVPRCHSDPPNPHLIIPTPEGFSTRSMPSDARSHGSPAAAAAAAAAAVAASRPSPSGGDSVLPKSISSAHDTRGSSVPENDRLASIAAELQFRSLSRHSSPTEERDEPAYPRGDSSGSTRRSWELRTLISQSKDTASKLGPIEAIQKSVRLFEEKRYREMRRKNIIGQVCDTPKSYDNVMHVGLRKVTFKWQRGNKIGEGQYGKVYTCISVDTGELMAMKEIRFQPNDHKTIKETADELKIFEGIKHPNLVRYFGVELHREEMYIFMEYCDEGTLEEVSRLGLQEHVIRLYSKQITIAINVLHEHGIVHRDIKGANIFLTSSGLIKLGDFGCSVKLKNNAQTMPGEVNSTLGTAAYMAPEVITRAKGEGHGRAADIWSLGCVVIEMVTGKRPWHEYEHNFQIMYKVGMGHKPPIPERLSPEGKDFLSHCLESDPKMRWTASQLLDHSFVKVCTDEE

With `COc1cc(Nc2nc(C)cc(-c3cnn4nc(OC)ccc34)n2)cc(C(F)(F)F)c1` the % of control [1] was 100%.
In the case of `CC[C@@H]1[C@H](F)C(=O)N[C@@H]1COc1nccc2cc(C(N)=O)c(OC)cc12` [ZIMLOVISERTIB], the % of inhibition [2] is reported as 5.4%.
With `CCN(CC)CCCCNc1ncc2cc(-c3cc(OC)cc(OC)c3)c(NC(=O)NC(C)(C)C)nc2n1` the % of control [3] was 100%.
Work on `C=CC(=O)Nc1cc(-n2c(=O)ccc3cnc4ccc(-c5ccc(NS(C)(=O)=O)cc5)cc4c32)ccc1C` yielded a % of control ([4]; at 1 µM) of 20% and a % of control ([4]; at 10 µM) of 52%.
Work on `CN(C)CCOc1ccc(-c2nc(-c3ccncc3)c(-c3ccc4c(c3)CC/C4=N\O)[nH]2)cc1` yielded a % of control [5] of 86%.
For `N#Cc1cccc(-c2c[nH]c3ncnc(N4CCOCC4)c23)c1`, the % of control [6] was 93%, the % of control [7] was 96% and the % of control [8] was 93%.
`CNC(=O)Nc1ccc(-c2nc(N3CC4CCC(C3)O4)c3cnn(C4CCC5(CC4)OCCO5)c3n2)cc1` gave a % of inhibition [9] of 15%.
For `C=CC(=O)Nc1ccc(C(=O)Nc2[nH]nc3c2CN(C(=O)N[C@H](CN(C)C)c2ccccc2)C3(C)C)cc1`, the % of engagement [10] was -2.6%.
